Measured values taken from US20110045101A1, “FUNGICIDAL SUBSTITUTED AZOLES” (E.I. Du Pont De Nemours and Company, priority 2009, published 2011).
Marks after values point to notes of the source that are not given here.

What was measured:
Type in all cases: in vivo
Settings in all cases: 100 = 100% disease control
Botrytis cinerea = test: Test C: tomato Botrytis on tomato seedlings, sprayed the day before inoculation, visual disease rating
Summary of the method: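 Disease ratings refer to tomato seedlings treated by run-off spraying with compound suspensions, mostly 200 ppm (500 g/ha equivalent) and in marked cases 40 ppm. Carrier: acetone/purified water 50/50 with 250 ppm polyhydric alcohol ester surfactant, after predissolving in acetone.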

[1] = tested on: Erysiphe graminis f. sp. tritici; test: Test J: wheat powdery mildew on wheat seedlings, sprayed the day before inoculation, visual disease rating
Summary of the method: (§1)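 Acetone solution (3% of final volume) of each compound is suspended in 50/50 acetone/water with 250 ppm Trem® 014. Plants are sprayed to run-off at 200 ppm, equivalent to 500 g/ha, or at 40 ppm for starred values.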

Septoria nodorum = test: Test F: wheat glume blotch on wheat seedlings, sprayed the day before inoculation, visual disease rating
Summary of the method: as §1

Septoria tritici = test: Test G: wheat leaf blotch on wheat seedlings, sprayed the day before inoculation, visual disease rating
Summary of the method: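 Disease was rated visually after Septoria tritici inoculation, 48 h saturated incubation at 24°C and 19 days in a 20°C growth chamber. Inoculation followed one day after run-off spraying of seedlings with compound at 200 ppm (≈500 g/ha) or, where marked, 40 ppm, formulated in acetone/water with surfactant.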

[2] = tested on: Puccinia recondita f. sp. tritici; test: Test I: wheat leaf rust on wheat seedlings, sprayed the day before inoculation, visual disease rating
Summary of the method: as §1

Alternaria solani = test: Test D: tomato early blight, sprayed the day before inoculation, visual disease rating
Summary of the method: as §1

[3] = tested on: Puccinia recondita f. sp. tritici; test: Test H: wheat leaf rust, test suspension sprayed after inoculation of wheat seedlings, visual disease rating
Summary of the method: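 Wheat seedlings inoculated with P. recondita spores, held 24 h saturated at 20 °C, then 2 days in growth chamber at 20 °C; compound suspension (acetone/water with Trem 014) sprayed to run-off afterwards. Rated visually; 200 ppm (≈500 g/ha) unless marked *, which denotes 40 ppm.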

[4] = 200 ppm, 0 = no control relative to controls
[5] = 40 ppm (marked *), 0 = no control

SMILES	Test C disease control rating (Botrytis cinerea; [4])	Test J disease control rating [1, 4]	Test F disease control rating (Septoria nodorum; [4])	Test G disease control rating (Septoria tritici; [4])	Test I disease control rating [2, 4]	Test D disease control rating (Alternaria solani; [4])	Test H disease control rating [3, 4]	also measured
COc1ccc(F)c(-c2c(Cl)ncn2-c2ccc(F)cc2)c1F [compound 299]	99%	99%	90%	97%	99%	99%	0%	–
Cc1nc(Br)c(-c2ccc(Cl)cc2)n1-c1ccc(F)cc1Cl [compound 338]	100%	99%	80%	93%	99%	100%	0%	–
COc1ccc(F)c(-c2c(Cl)nc(Cl)n2-c2ccc(Cl)nc2)c1F [compound 709]	100%	100%	100%	99%	100%	100%	100%	–
Cc1nn(C)c(Cc2ccc(Cl)cc2)c1-c1ccc(F)cc1Cl [compound 344]	100%	99%	0%	95%	89%	0%	17%	–
N#Cc1ccc(F)c(-c2c(Cl)nc(Cl)n2-c2ccc(F)cc2)c1F [compound 679]	100%	100%	99%	99%	100%	100%	18%	–
COc1ccc(F)c(-c2c(Cl)nc(Cl)n2-c2ccc(Cl)c(C)c2)c1F [compound 399]	100%	100%	82%	96%	82%	99%	0%	–
Cc1ccc(-n2c(Cl)nc(Cl)c2-c2ccc(F)cc2Cl)cc1 [compound 282]	–	–	–	–	–	–	–	Test C disease control rating (Botrytis cinerea; 200 ppm, 0 = no control): 99%; Test J disease control rating ([1]; 200 ppm, 0 = no control): 100%; Test F disease control rating (Septoria nodorum; 200 ppm, 0 = no control): 0%; Test G disease control rating (Septoria tritici; 200 ppm, 0 = no control): 93%; Test I disease control rating ([2]; 200 ppm, 0 = no control): 99%; Test D disease control rating (Alternaria solani; 200 ppm, 0 = no control): 99%; Test H disease control rating ([3]; 200 ppm, 0 = no control): 65%
COc1cc(F)c(-c2c(Cl)nnn2-c2ccc(Cl)cc2)c(F)c1 [compound 626]	99%	97%	0%	100%	79%	99%	17%	–
Fc1cc(-c2c(CCl)nc(Cl)n2-c2ccc(Cl)c(F)c2)ccn1 [compound 322]	–	–	–	–	–	–	–	Test C disease control rating (Botrytis cinerea; [5]): 62* %; Test J disease control rating [1, 5]: 0* %; Test F disease control rating (Septoria nodorum; [5]): 0* %; Test G disease control rating (Septoria tritici; [5]): 0* %; Test I disease control rating [2, 5]: 28* %; Test D disease control rating (Alternaria solani; [5]): 0* %; Test H disease control rating [3, 5]: 63* %
Cc1nc(Cl)c(-c2c(F)ccc(F)c2F)n1-c1ccc(Cl)c(Cl)c1 [compound 480]	100%	100%	95%	96%	99%	100%	0%	–
COc1cc(F)c(-c2c(Cl)ncn2-c2ccc(OC(F)F)cc2)c(F)c1 [compound 557]	100%	87%	78%	96%	99%	99%	43%	–
Cc1ccc(-n2c(Cl)nc(C)c2-c2c(F)ccc(F)c2Cl)cc1 [compound 495]	–	–	–	–	–	–	–	Test C disease control rating (Botrytis cinerea; 40 ppm (marked *)): 97* %; Test J disease control rating ([1]; 40 ppm (marked *)): 100* %; Test F disease control rating (Septoria nodorum; 40 ppm (marked *)): 0* %; Test G disease control rating (Septoria tritici; 40 ppm (marked *)): 31* %; Test I disease control rating ([2]; 40 ppm (marked *)): 99* %; Test D disease control rating (Alternaria solani; 40 ppm (marked *)): 99* %; Test H disease control rating ([3]; 40 ppm (marked *)): 0* %
Fc1cccc(F)c1-c1c(Cl)nc(Cl)n1-c1ccc(Cl)nc1 [compound 592]	100%	100%	100%	96%	100%	100%	100%	–
Fc1ccc(-n2c(Br)nc(Br)c2-c2ccc(Cl)c(F)c2)c(Cl)c1 [compound 301]	100%	96%	0%	95%	91%	94%	6%	–
COc1ccc(-c2c(Cl)nc(Br)n2-c2ccc(F)cc2)c(Cl)c1 [compound 725]	100%	98%	73%	99%	91%	99%	15%	–
Cc1nc(Cl)n(-c2ccc(Cl)cc2)c1-c1c(F)ccc(F)c1Cl [compound 414]	–	–	–	–	–	–	–	Test C disease control rating (Botrytis cinerea; [5]): 99* %; Test J disease control rating [1, 5]: 100* %; Test F disease control rating (Septoria nodorum; [5]): 0* %; Test G disease control rating (Septoria tritici; [5]): 96* %; Test I disease control rating [2, 5]: 93* %; Test D disease control rating (Alternaria solani; [5]): 99* %; Test H disease control rating [3, 5]: 0* %
Cc1ncc(Cc2c(F)cc(F)cc2F)n1-c1cc(Cl)cc(Cl)c1 [compound 539]	36%	95%	0%	7%	93%	0%	0%	–
Fc1ccc(-n2c(Cl)nc(Br)c2-c2ccc(Cl)c(F)c2)c(Cl)c1 [compound 326]	100%	100%	51%	96%	98%	100%	67%	–
COc1cc(F)c(-c2c(O)nc(C)n2-c2ccc(Cl)cc2)c(F)c1 [compound 672]	96%	0%	0%	87%	0%	0%	0%	–
CN(C)c1ccc(-n2cnc(Cl)c2-c2c(F)cccc2F)cc1 [compound 635]	–	–	–	–	–	–	–	Test C disease control rating (Botrytis cinerea; 40 ppm (marked *)): 99* %; Test J disease control rating ([1]; 40 ppm (marked *)): 0* %; Test F disease control rating (Septoria nodorum; 40 ppm (marked *)): 0* %; Test G disease control rating (Septoria tritici; 40 ppm (marked *)): 81* %; Test I disease control rating ([2]; 40 ppm (marked *)): 39* %; Test D disease control rating (Alternaria solani; 40 ppm (marked *)): 0* %; Test H disease control rating ([3]; 40 ppm (marked *)): 0* %
